# Measured values reported in US20170190705A1, “Compositions and Methods for Inhibiting BMP” (THE BRIGHAM AND WOMAN'S HOSPITAL, INC., priority 2014, published 2017).
# Where two headings read alike, the source gives them in different places.
# Columns and labels:
# [1] = system: HePG2 hepatocarcinoma cells; type: cell-based; settings: human
# Experimental: The cells were incubated for 2 h (37° C. and 5% CO2) and allowed to settle and attach. Compounds of interest or DMSO were diluted in DMEM and added at final compound concentrations of 1 μM, 10 μM, and 100 μM. Cells were incubated for 4 hours and 24 hours after which the media was discarded. Cells were lysed by adding 30 μL of passive lysis buffer (Promega) and shaken at RT for 15 min. Cell viability was determined by quantifying the ATP present in each well by adding 10 μL of CellTiter-Glo (Promega) per well and measuring the light output Spectramax L luminometer (Molecular Devices) with an integration time of one second per well. Data was normalized to 100% viability for cells receiving only DMSO without any concurrent compound.
# BMP6 = assay: Ligand induced transcriptional activity assay BMP6 (BRE-Luc); type: cell-based; settings: cell-based signaling inhibition; read-out: BMP6 IC50
# ALK2 = target: T1, ALK2 (Homo sapiens, UniProt Q04771, Q207D); assay: Thermal shift kinase assay ALK2; type: binding; settings: ALK2 minus ALK5
# T1 construct: His tag (TEV-cleavable) (N, cleaved yes); made in house; host or cells: Sf9 insect cells (baculovirus)
# T1 sequence (Q04771 201-499 Q207D): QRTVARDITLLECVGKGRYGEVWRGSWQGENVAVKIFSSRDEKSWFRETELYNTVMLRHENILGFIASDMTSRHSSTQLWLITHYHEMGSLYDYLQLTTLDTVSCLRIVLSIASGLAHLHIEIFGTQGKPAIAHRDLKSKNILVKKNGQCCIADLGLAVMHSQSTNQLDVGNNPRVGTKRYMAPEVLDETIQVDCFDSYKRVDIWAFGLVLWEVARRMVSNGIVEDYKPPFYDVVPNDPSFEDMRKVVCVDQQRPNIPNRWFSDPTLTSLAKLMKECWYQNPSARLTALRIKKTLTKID
# Experimental: Thermal melting experiments were performed using a Real Time PCR machine Mx3005p (Stratagene) with a protein concentration of 1-2 μM and 10 μM inhibitor as described by Niesen et al., Nat Protoc 2007, 2, 2212-21. Recombinant human kinases for DSF screening were prepared by SGC using the published methods of Sanvitale et al., PLoS One 2013, 8, e62721. The potency and selectivity of certain compounds of the invention based on thermal shift kinase and ligand induced transcriptional activity assays are shown in Table 2.
structure (smiles),measurement,setting,value
"COc1cc(-c2cc(-c3cccc(NS(C)(=O)=O)c3)cnc2N)cc(OC)c1OC [Compound 13, N-(3-(6-amino-5-(3,4,5-trimethoxyphenyl)pyridin-3-yl)phenyl)methanesulfonamide]",Cell viability,"[1]; 4 h, 1 μM",97%
same,Cell viability,"[1]; 4 h, 10 μM",100%
same,Cell viability,"[1]; 4 h, 100 μM",95%
same,Cell viability,"[1]; 24 h, 1 μM",101%
same,Cell viability,"[1]; 24 h, 10 μM",98%
same,Cell viability,"[1]; 24 h, 100 μM",82%
same,IC50,BMP6,60 ± 10 nM
same,ΔTmDiff.,ALK2,0.9
"COc1cc(-c2cc(-c3cccc(N4CCNCC4)c3)cnc2N)cc(OC)c1OC [Compound 14, 5-(3-(piperazin-1-yl)phenyl)-3-(3,4,5-trimethoxyphenyl)pyridin-2-amine]",Cell viability,"[1]; 4 h, 1 μM",96%
same,Cell viability,"[1]; 4 h, 10 μM",110%
same,Cell viability,"[1]; 4 h, 100 μM",99%
same,Cell viability,"[1]; 24 h, 1 μM",99%
same,Cell viability,"[1]; 24 h, 10 μM",93%
same,ΔTmDiff.,ALK2,0.8
"COc1ccc(-c2cc(-c3ccc(N4CCNCC4)cc3)cnc2N)cc1OC [Compound 16, 3-(3,4-dimethoxyphenyl)-5-(4-(piperazin-1-yl)phenyl)pyridin-2-amine]",ΔTmDiff.,ALK2,4.3
"COc1cc(OC)cc(-c2cc(-c3ccc(N4CCNCC4)cc3)cnc2N)c1 [Compound 17, 3-(3,5-dimethoxyphenyl)-5-(4-(piperazin-1-yl)phenyl)pyridin-2-amine]",Cell viability,"[1]; 4 h, 1 μM",95%
same,Cell viability,"[1]; 4 h, 10 μM",99%
same,Cell viability,"[1]; 24 h, 1 μM",99%
same,Cell viability,"[1]; 24 h, 10 μM",80%
same,IC50,BMP6,40 ± 10 nM
same,ΔTmDiff.,ALK2,3.5
"COc1cccc(-c2cc(-c3ccc(N4CCNCC4)cc3)cnc2N)c1 [Compound 18, 3-(3-methoxyphenyl)-5-(4-(piperazin-1-yl)phenyl)pyridin-2-amine]",Cell viability,"[1]; 4 h, 1 μM",98%
same,Cell viability,"[1]; 4 h, 10 μM",101%
same,Cell viability,"[1]; 4 h, 100 μM",106%
same,Cell viability,"[1]; 24 h, 1 μM",103%
same,Cell viability,"[1]; 24 h, 10 μM",100%
same,ΔTmDiff.,ALK2,3.8
"Nc1ncc(-c2ccc(N3CCNCC3)cc2)cc1-c1ccc2c(c1)OCCO2 [Compound 19, 3-(2,3-dihydrobenzo[b][1,4]dioxin-6-yl)-5-(4-(piperazin-1-yl)phenyl)pyridin-2-amine]",Cell viability,"[1]; 4 h, 1 μM",100%
same,Cell viability,"[1]; 4 h, 10 μM",102%
same,Cell viability,"[1]; 4 h, 100 μM",91%
same,Cell viability,"[1]; 24 h, 1 μM",103%
same,Cell viability,"[1]; 24 h, 10 μM",95%
same,IC50,BMP6,730 ± 100 nM
same,ΔTmDiff.,ALK2,4.0
"COc1ccc(-c2cc(-c3ccc(N4CCNCC4)cc3)cnc2N)cc1 [Compound 20, 3-(4-methoxyphenyl)-5-(4-(piperazin-1-yl)phenyl)pyridin-2-amine]",Cell viability,"[1]; 4 h, 1 μM",106%
same,Cell viability,"[1]; 4 h, 10 μM",102%
same,Cell viability,"[1]; 24 h, 1 μM",108%
same,Cell viability,"[1]; 24 h, 10 μM",104%
same,ΔTmDiff.,ALK2,4.5
"CC(C)Oc1cccc(-c2cc(-c3ccc(N4CCNCC4)cc3)cnc2N)c1 [Compound 21, 3-(3-isopropoxyphenyl)-5-(4-(piperazin-1-yl)phenyl)pyridin-2-amine]",Cell viability,"[1]; 4 h, 1 μM",94%
same,Cell viability,"[1]; 4 h, 10 μM",105%
same,Cell viability,"[1]; 24 h, 1 μM",98%
same,Cell viability,"[1]; 24 h, 10 μM",82%
same,ΔTmDiff.,ALK2,1.0
"COc1cc(-c2cc(-c3ccc(N4CCNCC4)cc3)cnc2N)ccc1Cl [Compound 22, 3-(4-chloro-3-methoxyphenyl)-5-(4-(piperazin-1-yl)phenyl)pyridin-2-amine]",Cell viability,"[1]; 4 h, 1 μM",96%
same,Cell viability,"[1]; 4 h, 10 μM",104%
same,Cell viability,"[1]; 24 h, 1 μM",101%
same,Cell viability,"[1]; 24 h, 10 μM",81%
same,IC50,BMP6,160 ± 10 nM
same,ΔTmDiff.,ALK2,2.7
"COc1cc(-c2cc(-c3ccc(N4CCNCC4)cc3)cnc2N)ccc1C [Compound 23, 3-(3-methoxy-4-methylphenyl)-5-(4-(piperazin-1-yl)phenyl)pyridin-2-amine]",Cell viability,"[1]; 4 h, 1 μM",95%
same,Cell viability,"[1]; 4 h, 10 μM",101%
same,Cell viability,"[1]; 24 h, 1 μM",98%
same,Cell viability,"[1]; 24 h, 10 μM",86%
same,ΔTmDiff.,ALK2,3.8
"CNc1ncc(-c2ccc(N3CCNCC3)cc2)cc1-c1cc(OC)c(OC)c(OC)c1 [Compound 24, N-methyl-5-(4-(piperazin-1-yl)phenyl)-3-(3,4,5-trimethoxyphenyl)pyridin-2-amine]",Cell viability,"[1]; 4 h, 1 μM",95%
same,Cell viability,"[1]; 4 h, 10 μM",105%
same,Cell viability,"[1]; 4 h, 100 μM",86%
same,Cell viability,"[1]; 24 h, 1 μM",101%
same,Cell viability,"[1]; 24 h, 10 μM",86%
same,ΔTmDiff.,ALK2,−0.5
Nc1ncc(-c2ccc(N3CCNCC3)cc2)cc1-c1ccnc2ccccc12 [Compound 29],Cell viability,"[1]; 4 h, 1 μM",91%
same,Cell viability,"[1]; 4 h, 10 μM",104%
same,Cell viability,"[1]; 4 h, 100 μM",108%
same,Cell viability,"[1]; 24 h, 1 μM",108%
same,Cell viability,"[1]; 24 h, 10 μM",84%
same,IC50,BMP6,110 ± 50 nM
same,ΔTmDiff.,ALK2,3.4
"Nc1ncc(-c2cccc(N3CCNCC3)c2)cc1-c1ccnc2ccccc12 [Compound 30, 5-(3-(piperazin-1-yl)phenyl)-3-(quinolin-4-yl)pyridin-2-amine]",Cell viability,"[1]; 4 h, 1 μM",92%
same,Cell viability,"[1]; 4 h, 10 μM",104%
same,Cell viability,"[1]; 24 h, 1 μM",104%
same,Cell viability,"[1]; 24 h, 10 μM",92%
same,Cell viability,"[1]; 24 h, 100 μM",5%
same,IC50,BMP6,520 ± 60 nM
same,ΔTmDiff.,ALK2,2.5
"Nc1ncc(-c2ccc(N3CCNCC3)cc2)cc1-c1cccc2ncccc12 [Compound 31, 5-(4-(piperazin-1-yl)phenyl)-3-(quinolin-5-yl)pyridin-2-amine]",Cell viability,"[1]; 4 h, 1 μM",96%
same,Cell viability,"[1]; 4 h, 10 μM",103%
same,Cell viability,"[1]; 4 h, 100 μM",117%
same,Cell viability,"[1]; 24 h, 1 μM",105%
same,Cell viability,"[1]; 24 h, 10 μM",95%
same,IC50,BMP6,170 ± 60 nM
same,ΔTmDiff.,ALK2,4.2
"COc1cc(-c2cnn3cc(-c4ccc(N5CCNCC5)cc4)cnc23)cc(OC)c1OC [Compound 32, 3-(3,4,5-trimethoxyphenyl)-6-[4-(1-piperazinyl)phenyl]pyrazolo[1,5-a]pyrimidine]",Cell viability,"[1]; 4 h, 1 μM",92%
same,Cell viability,"[1]; 4 h, 10 μM",101%
same,Cell viability,"[1]; 24 h, 1 μM",99%
same,IC50,BMP6,20 ± 2 nM
same,ΔTmDiff.,ALK2,2.6
"COc1cc(OC)cc(-c2cncc(-c3ccc(N4CCNCC4)cc3)c2)c1 [Compound 33, 1-(4-(5-(3,5-dimethoxyphenyl)pyridin-3-yl)phenyl)piperazine]",Cell viability,"[1]; 4 h, 1 μM",95%
same,Cell viability,"[1]; 4 h, 10 μM",100%
same,Cell viability,"[1]; 24 h, 1 μM",101%
same,Cell viability,"[1]; 24 h, 10 μM",92%
same,ΔTmDiff.,ALK2,4.7
"Cc1nc(Nc2ncc(C(=O)Nc3c(C)cccc3Cl)s2)cc(N2CCN(CCO)CC2)n1 [Dasatinib, reference compound]",Cell viability,"[1]; 4 h, 1 μM",94%
same,Cell viability,"[1]; 4 h, 10 μM",107%
same,Cell viability,"[1]; 24 h, 1 μM",87%
"C#Cc1cccc(Nc2ncnc3cc(OCCOC)c(OCCOC)cc23)c1 [Erlotinib, reference compound]",Cell viability,"[1]; 4 h, 1 μM",96%
same,Cell viability,"[1]; 4 h, 10 μM",107%
same,Cell viability,"[1]; 4 h, 100 μM",108%
same,Cell viability,"[1]; 24 h, 1 μM",99%
same,Cell viability,"[1]; 24 h, 10 μM",84%
same,Cell viability,"[1]; 24 h, 100 μM",84%
"COc1cc2ncnc(Nc3ccc(F)c(Cl)c3)c2cc1OCCCN1CCOCC1 [Gefitinib, reference compound]",Cell viability,"[1]; 4 h, 1 μM",93%
same,Cell viability,"[1]; 4 h, 10 μM",105%
same,Cell viability,"[1]; 4 h, 100 μM",104%
same,Cell viability,"[1]; 24 h, 1 μM",98%
same,Cell viability,"[1]; 24 h, 10 μM",82%
same,Cell viability,"[1]; 24 h, 100 μM",85%
"CS(=O)(=O)CCNCc1ccc(-c2ccc3ncnc(Nc4ccc(OCc5cccc(F)c5)c(Cl)c4)c3c2)o1 [Lapatinib, reference compound]",Cell viability,"[1]; 4 h, 1 μM",100%
same,Cell viability,"[1]; 4 h, 10 μM",104%
same,Cell viability,"[1]; 4 h, 100 μM",104%
same,Cell viability,"[1]; 24 h, 1 μM",98%
same,Cell viability,"[1]; 24 h, 10 μM",92%
same,Cell viability,"[1]; 24 h, 100 μM",89%
"Cc1cn(-c2cc(NC(=O)c3ccc(C)c(Nc4nccc(-c5cccnc5)n4)c3)cc(C(F)(F)F)c2)cn1 [Nilotinib, reference compound]",Cell viability,"[1]; 4 h, 1 μM",99%
same,Cell viability,"[1]; 4 h, 10 μM",106%
same,Cell viability,"[1]; 4 h, 100 μM",105%
same,Cell viability,"[1]; 24 h, 1 μM",100%
same,Cell viability,"[1]; 24 h, 10 μM",101%
same,Cell viability,"[1]; 24 h, 100 μM",91%
"N#CC[C@H](C1CCCC1)n1cc(-c2ncnc3[nH]ccc23)cn1 [Ruxolitinib, reference compound]",Cell viability,"[1]; 4 h, 1 μM",101%
same,Cell viability,"[1]; 4 h, 10 μM",105%
same,Cell viability,"[1]; 4 h, 100 μM",88%
same,Cell viability,"[1]; 24 h, 1 μM",100%
same,Cell viability,"[1]; 24 h, 10 μM",90%
"CCN(CC)CCNC(=O)c1c(C)[nH]c(/C=C2\C(=O)Nc3ccc(F)cc32)c1C [Sunitinib, reference compound]",Cell viability,"[1]; 4 h, 1 μM",97%
same,Cell viability,"[1]; 4 h, 10 μM",107%
same,Cell viability,"[1]; 24 h, 1 μM",96%
"CCCS(=O)(=O)Nc1ccc(F)c(C(=O)c2c[nH]c3ncc(-c4ccc(Cl)cc4)cc23)c1F [Vemurafenib, reference compound]",Cell viability,"[1]; 4 h, 1 μM",103%
same,Cell viability,"[1]; 4 h, 10 μM",100%
same,Cell viability,"[1]; 4 h, 100 μM",102%
same,Cell viability,"[1]; 24 h, 1 μM",95%
same,Cell viability,"[1]; 24 h, 10 μM",77%
